We go through four molecules from patent US20110152166A1, “METHOD OF MODULATION OF PROTEIN PHOSPHORYLATION-DEPENDENT CONFORMATIONAL TRANSITIONS WITH LOW MOLECULAR WEIGHT COMPOUNDS” (priority 2006, published 2011).

Changes are numbered by the printed parent chain. Square brackets hold non-standard residues; d marks the D form. Ends that are not written are not given here. pS = N[C@@H](COP(=O)(O)O)C(=O)O

The target in one assay is T1, GST-PDK1 [Gln150Ala] (Homo sapiens, UniProt O15530, Q150A).
T1 construct: different protein constructs, comprising the full length protein or the catalytic domain alone; made in house; host or cells: HEK293 cells (pEBG-2T-PDK1 mutant)
T1 sequence (O15530 1-556 Q150A): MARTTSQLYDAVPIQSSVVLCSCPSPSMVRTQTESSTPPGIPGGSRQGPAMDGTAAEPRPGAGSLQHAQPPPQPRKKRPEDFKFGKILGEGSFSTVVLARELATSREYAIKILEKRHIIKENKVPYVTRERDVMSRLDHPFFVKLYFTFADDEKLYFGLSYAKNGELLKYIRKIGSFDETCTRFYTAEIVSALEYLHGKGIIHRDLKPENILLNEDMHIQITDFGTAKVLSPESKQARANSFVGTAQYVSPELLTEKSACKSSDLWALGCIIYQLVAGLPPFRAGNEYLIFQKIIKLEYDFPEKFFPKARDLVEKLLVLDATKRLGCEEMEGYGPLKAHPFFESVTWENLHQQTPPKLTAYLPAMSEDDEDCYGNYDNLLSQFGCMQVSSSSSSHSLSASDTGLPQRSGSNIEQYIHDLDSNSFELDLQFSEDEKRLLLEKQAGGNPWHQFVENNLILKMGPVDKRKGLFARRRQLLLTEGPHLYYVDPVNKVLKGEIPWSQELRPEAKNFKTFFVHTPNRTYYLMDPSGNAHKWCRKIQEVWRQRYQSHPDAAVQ
The assay can be described thus: PDK1 activity assay with T308tide. The conditions noted are these: for AC50 / Max. activity: GST-PDK1 [Gln150Ala]; for activation of PDK1 mutant (in words): PDK1[Gln150Ala], 20 μM. It is filed as biochemical. On the procedure:
Protein kinase activity tests were performed essentially as previously described (Balendran et al., 2000; Biondi et al., 2000; Biondi et al., 2001). Substrates used were either MBP (for PKCζ or polypeptides (Crosstide for PKB, S6K, SGK and PRK2; T308tide for PDK1, and Kemptide for PKA). PKA (Sigma) was measured in the presence of 100 μM cAMP. Alternatively, assays were performed in a 96 well format, aliquots spotted on p81 phosphocellulose papers (Whatmann), washed in 0.01% phosphoric acid, dried, and then exposed and analysed using Phospholmager technology (Storm, Molecular Dynamics). Activity measurements were performed in duplicates with less than 10% difference between duplicate pairs. Experiments were repeated at least twice, although most of the experiments were repeated multiple times, with similar results.
PDK1 activity assay was performed in a 20 μl mix containing 50 mM Tris-HCl pH 7.5, 0.05 mg/ml BSA, 0.1% β-mercaptoethanol, 10 mM MgCl2, 100 μM [γ^32P]ATP (5-50 cpm/pmol), 0.003% Brij, 150 ng PDK1, and T308tide (from 0.05 to 1 mM). PDK1 specific activity was approximately 5 U/mg (when measured at 1 mM T308tide). The effect of small compounds on PDK1 was repeated with proteins from different purification batches and with different protein constructs, comprising the full length protein or the catalytic domain alone, with similar results. […] This variability may be due to the PIFtide/compound-stimulated autophosphorylation of the activation loop in certain preparations having less than a 1:1 molar phosphorylation stoichiometry at this site.
PDK1 activity was measured at room temperature using a polypeptide substrate derived from the activation loop phosphorylation site of PKB, T308tide (0.1 mM). […] GST-PDK1 wt was purified in numerous occasions and the maximal activation level of different batches varied between 3 and 8 fold activation with PIFtide or compound 1. Variations in the basal activity and fold activation were also observed in mutants. Therefore, comparisons in the maximal level of activation between mutants should be performed with care. The data shown are from an experiment where PIFtide concentrations were tested between 50 nM and 20 µM and compound 1 concentrations were between 5 μM and 200 μM, in triplicate. AC50 and max. activity were estimated by fitting the data to a hyperbola using Kaleidagraph software. One Unit of PDK1 activity was defined as the amount required to catalyse the phosphorylation of 1 nmol of the T308tide in 1 min.

A further assay has as its target T2, GST-PDK1 1-556 (Homo sapiens, UniProt O15530).
T2 construct: made in house; host or cells: HEK293
T2 sequence (O15530 1-556): T1 sequence (O15530 1-556 Q150A) with A150Q
Description: Surface plasmon resonance, GST-PDK1 binding to biotin-PIFtide and displacement by compounds. The conditions noted are these: competition, pre-incubation with PDK1. The procedure:
FIG. 3—Small compounds displace the binding of PDK1 1-556 to the HM peptide derived from its substrate PRK2, PIFtide. Surface plasmon resonance measurements were carried out on a BiaCore system to measure the interaction between GST-PDK1 and biotin-PIFtide coupled to a streptavidin-coated chip. (A) Direct measurement of PDK1 interaction with biotin-PIFtide. PDK1 was injected at the indicated concentrations (nM). For the following competition experiments, PDK1 45 nM was used. (B) PDK1 interaction with biotin-PIFtide was abolished by pre-incubation with PIFtide. […] The data points represent the maximal response units obtained after 30 s injection in the presence of the indicated concentration of compound. In (A) and (B) the spikes at the start and end of injection have been eliminated for clarity.
Binding of PDK1 to PIFtide was analysed by surface plasmon resonance on a BiaCore 3000 system using a streptavidin-coated Sensor chip (SA) and biotin-PIFtide, as previously described (Biondi et al., 2001). Biotin-PIFtide was bound to the chip to a level of 15 to 25 response units in different experiments. GST-PDK1 bound to biotin-PIFtide with an affinity of 90 nM, in good agreement with previous data obtained using the BiaCore system. For interaction-displacement assays, GST-PDK1 (60 nM) was injected (30 μl/min) in a buffer containing 10 mM HEPES pH 7.5, 150 mM NaCl, 0.005% Tween20, 1 mM DTT and 1% DMSO, in the presence or absence of compounds. GST-PDK1 was pre-incubated with compounds for 1 to 10 minutes before injection into the system, with similar results. Experiments were performed at least twice using different biotin-PIFtide coated chips, with similar results obtained on each occasion.
(In general: SPR reads the build-up and loss of mass on a sensor chip optically.)

What is called AC50 is the concentration giving half of the maximal activity seen. High values mean activity only at high concentration, low ones activity at low concentration. Regarding `O=C(O)CSC(CC(=O)c1ccc(Cl)cc1)c1ccccc1` (stereo not drawn) [Compound 1], on GST-PDK1 [Gln150Ala], half-maximal activity (AC50) was put at 55 ± 9 µM, the Max. activity is listed as 1.12 ± 0.06 U/mg and the “activation of PDK1 mutant (in words)” value is on record as “still activated”. Also, the “displacement of PDK1 binding to biotin-PIFtide (in words)” value (from here on “displacement of PDK1 binding”) on GST-PDK1 1-556 is “able to disrupt the binding”.

For the molecule `COC(=O)CSC(CC(=O)c1ccc(Cl)cc1)c1ccccc1` (stereo not drawn) [Compound 2], at GST-PDK1 1-556, the “displacement of PDK1 binding” value is reported as “did not displace the binding significantly”.

Take “P-HM-RSK: phosphorylated HM polypeptide of RSK: KGAGGGGFRGFS(P)FVA (KGAGGGGFRGF[pS]FVA)”: the “activation of PDK1 mutant (in words)” value with GST-PDK1 [Gln150Ala] is recorded as “completely abolished”.

In the case of “REPRILSEEEQEMFRDFDYIADWC [PIFtide, reference compound]”, on GST-PDK1 [Gln150Ala], the AC50 was 0.5 ± 0.06 µM and the Max. activity turned out to be 1.55 ± 0.06 U/mg. For the same molecule, the “displacement of PDK1 binding” value on GST-PDK1 1-556 was “abolished this interaction”.
